In PubChem BioAssay AID1645866 (Buhrlage Lab, Dana-Farber Cancer Institute and Novartis …, 2021):
Active and inactive are the calls of the source.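 Rule for the calls: active = in confirmatory dose-response testing, peak deubiquitinase inhibition of 30% or more; inactive = the rest.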

Target: Ubiquitin carboxyl-terminal hydrolase 28 (Homo sapiens) (UniProt Q96RU2)
Test: Ubiquitin-specific peptidase 28 DUB inhibitors, biochemical concentration-dependence assay, validation of primary screening hits (AID 1645866)
Conditions: purified USP28, ubiquitin-rhodamine fluorescence, 30 min

Ubiquitin carboxyl-terminal hydrolase 28 (Homo sapiens), sequence (Q96RU2 whole entry, looked up): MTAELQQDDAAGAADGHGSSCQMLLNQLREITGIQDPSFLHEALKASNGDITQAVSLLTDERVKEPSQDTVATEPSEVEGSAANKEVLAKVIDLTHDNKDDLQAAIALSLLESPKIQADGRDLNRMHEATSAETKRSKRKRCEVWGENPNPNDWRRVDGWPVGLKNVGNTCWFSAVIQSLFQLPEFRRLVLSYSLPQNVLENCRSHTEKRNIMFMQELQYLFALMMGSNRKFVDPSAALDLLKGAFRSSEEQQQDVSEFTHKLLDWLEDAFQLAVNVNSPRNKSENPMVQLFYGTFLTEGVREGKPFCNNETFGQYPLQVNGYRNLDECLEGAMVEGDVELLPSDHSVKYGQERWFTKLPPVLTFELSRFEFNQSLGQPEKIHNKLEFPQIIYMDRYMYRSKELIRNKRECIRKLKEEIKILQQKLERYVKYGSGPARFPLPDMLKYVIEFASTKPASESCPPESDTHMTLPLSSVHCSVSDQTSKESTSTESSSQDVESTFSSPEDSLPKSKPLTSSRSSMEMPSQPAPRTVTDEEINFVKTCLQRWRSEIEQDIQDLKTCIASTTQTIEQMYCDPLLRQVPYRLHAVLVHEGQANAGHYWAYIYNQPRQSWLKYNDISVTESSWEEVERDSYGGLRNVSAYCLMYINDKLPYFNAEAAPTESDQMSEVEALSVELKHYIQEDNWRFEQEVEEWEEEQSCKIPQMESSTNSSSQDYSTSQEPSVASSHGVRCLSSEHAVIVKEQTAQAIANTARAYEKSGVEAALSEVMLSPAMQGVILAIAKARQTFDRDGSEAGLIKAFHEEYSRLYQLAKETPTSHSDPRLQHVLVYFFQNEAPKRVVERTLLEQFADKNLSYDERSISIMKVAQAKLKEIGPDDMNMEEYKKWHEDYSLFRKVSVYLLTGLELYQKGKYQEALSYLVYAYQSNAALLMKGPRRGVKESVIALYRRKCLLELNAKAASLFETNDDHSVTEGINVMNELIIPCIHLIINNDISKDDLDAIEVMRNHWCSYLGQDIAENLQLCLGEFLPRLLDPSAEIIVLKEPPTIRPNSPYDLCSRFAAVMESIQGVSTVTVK

| Structure (SMILES) | IC50 |
| --- | --- |
| CCCCn1c(=O)c(CCC(=O)OCC(=O)Nc2ccc3c(c2)OCCO3)nc2ccccc21 | 3.65 µM |
| CCOc1ccc(C2=NCCNC3=C2C(c2ccccc2)N(c2ccccc2)C3=O)cc1 (stereo not drawn) | > 50 µM (inactive) |
| O=C1CN(C(=O)COC(=O)CCCN2C(=O)c3cccc4cccc(c34)C2=O)c2ccccc2N1 | 48.5 µM |
| CCc1ccc(OCc2nnc(SCC(=O)Nc3ccccc3OC)n2Cc2ccccc2)cc1 | > 50 µM (inactive) |
| Nc1nonc1C(=O)NCCNCc1cccc(OCc2ccc(Cl)cc2)c1 | 32.6 µM |
| c1ccc(CCN2CCc3nc4cccnc4cc3C2)nc1 | > 50 µM (inactive) |
| CCOc1ccccc1NC(=O)Cn1ccn2nc(-c3ccc(OC)cc3)cc2c1=O | 16.5 µM |
| O=C(NC1CCS(=O)(=O)C1)c1ccc(N2CCC(Cc3ccccc3)CC2)nn1 (stereo not drawn) | > 50 µM (inactive) |
| COc1cc(C#N)c(NC(=NCc2ccc(F)cc2)SC)cc1OC | 22.5 µM |
| O=C(Nc1cccc2ccccc12)C1CCCN(S(=O)(=O)Cc2ccccc2)C1 (stereo not drawn) | 18.8 µM |
| O=C(c1cc(-c2ccc(Cl)cc2)n[nH]1)N1CCN(C(=O)c2ccco2)CC1 | 25.8 µM |
| CCOC(=O)c1cc2c(ccn2C)n1Cc1cccc2ccccc12 | > 50 µM (inactive) |
| Cc1ccc(Nc2nc(Nc3cccc(F)c3)nc3nccnc23)c(C)c1 | > 50 µM (inactive) |
| O=C1CC(C(=O)Nc2ccccc2F)n2nc(-c3ccccc3)cc2N1 (stereo not drawn) | 21.9 µM |
| Cc1ccccc1NC(=O)c1nc(-c2cn(Cc3ccc(F)cc3)nn2)no1 | 5.88 µM |
| CCOc1ccc(N2C(=O)c3ccccc3C2C(=O)NCc2ccccc2OC)cc1 (stereo not drawn) | 29.8 µM |
| COc1cc(NC(=O)c2cc(-c3ccncc3)n(-c3ccc(F)cc3)n2)cc(OC)c1 | 12 µM |
| Cc1cnc2nc3c(cc2c1)CN(CCc1ccc(Cl)cc1)CC3 | > 50 µM (inactive) |
| O=C(CC1Oc2ccccc2NC1=O)Nc1ccccc1Br (stereo not drawn) | 38 µM |
| COc1cc2c(cc1OC)-c1cc(Nc3ccc(Br)cc3)nc(=O)n1CC2 | 1.84 µM |
| CC1CC(=O)N(Cc2ccc([N+](=O)[O-])cc2)c2ccccc2S1 (stereo not drawn) | 13.3 µM |
| Cc1ccc(NC(=O)c2cc(=O)n(C)c3c2c(=O)n(C)c(=O)n3C)c(C)c1 | > 50 µM (inactive) |
| Cn1c(=O)c2c(ncn2CC(=O)NC2CCCc3ccccc32)n(C)c1=O (stereo not drawn) | > 50 µM (inactive) |
| O=C(Cn1cc(C(=O)C(F)(F)F)c2ccccc21)N1CCc2ccccc21 | 2.68 µM |
| COc1ccc(CCNC(=O)c2cc3ccccc3s2)cc1OC | 2.07 µM |
| CNc1nc2c(c(=O)n1C)CN(C(=O)Nc1cccc3ccccc13)CC2 | > 50 µM (inactive) |

| Structure (SMILES) | IC50 |
| --- | --- |
| O=C(CCn1c(=O)c2sccc2n(CC(=O)OCc2ccccc2)c1=O)NCc1ccc2c(c1)OCO2 | 18 µM |
| COc1ccc(CCC(=O)Nc2ccc3c(c2)Sc2ncccc2C(=O)N3C)cc1 | 41 µM |
| Cc1ccc(NC(=O)c2sc(=S)n(CCc3ccccc3)c2N)cc1 | 9.8 µM |
| O=C(COc1ncnc2ccccc12)Nc1ccc2c(c1)OC1(CCCC1)O2 | 24 µM |
| O=C(CNC(=O)OCc1ccccc1)Nc1ccc(Br)cc1C(=O)c1ccccc1Cl | 11.3 µM |
| CCc1cccc2c(C(=O)COc3ccc(C#N)cc3)c[nH]c12 | 15.1 µM |
| Cc1cc(Nc2ccc(C(=O)NCc3ccco3)cc2)n2nc(-c3cccnc3)nc2n1 | 22.3 µM |
| Cc1cccc(NC(=O)c2nn(C)c3ccccc3c2=O)c1 | 16.5 µM |
| CCOc1ccccc1C(=O)Nc1ccc2c(c1)Sc1ncccc1C(=O)N2C | 41.6 µM |
| CCOC(=O)c1ccc(NC(=O)Cn2c(=O)n(CC(=O)NCc3ccco3)c(=O)c3ccccc32)cc1 | 2.31 µM |
| O=C(NCc1ccco1)c1ccc2c(c1)N(Cc1cccc(F)c1)C(=O)c1ccccc1S2 | > 50 µM (inactive) |
| CCc1nc(SCC(=O)Nc2ccccc2Cl)c2oc3ccccc3c2n1 | 0.37 µM |
| Cn1c2ccccc2c(=O)c2c(=O)n(Cc3ccccc3)c(-c3ccco3)nc21 | 1.23 µM |
| Cc1ccc(NC(=O)c2nnn(-c3ccccc3)n2)cc1F | 19.9 µM |
| COC(=O)C1C(c2ccc(OC)cc2)C2(C(=O)c3ccccc3C2=O)C2C=Cc3ccccc3N12 (stereo not drawn) | > 50 µM (inactive) |
| CC(OC(=O)c1cn(-c2ccccc2)nc1-c1cccnc1)C(=O)Nc1cccc(S(=O)(=O)N(C)C)c1 (stereo not drawn) | 30.9 µM |
| CCn1c(=O)c(=O)[nH]c2cc(C(=O)Nc3cccc(-c4csc(C)n4)c3)ccc21 | 1.99 µM |
| CCC(=O)N1c2ccccc2NC2=C(C(=O)CC(c3ccccc3OCc3ccccc3)C2)C1c1ccccc1 (stereo not drawn) | 4.53 µM |
| O=C(CN1CCCc2ccccc21)Nc1ccc(N2CCOCC2)cc1 | > 50 µM (inactive) |
| COc1ccc(Cn2c(=O)[nH]c3cc(C(=O)NCCCN4CCN(c5cccc(Cl)c5)CC4)ccc3c2=O)cc1 | 3.43 µM |
| O=C(Cn1c(=O)n(Cc2ccc3c(c2)OCO3)c(=O)c2ncccc21)c1ccc(Cl)cc1 | 30.4 µM |
| CN1CCN(C(=O)c2ccn(-c3ccc4ccc(-c5cnn(C)c5)cn34)n2)CC1 | > 50 µM (inactive) |
| O=C1CC(O)C(C2=CC(=O)c3c(O)cccc3C2=O)O1 (stereo not drawn) | 1.91 µM |
| CCn1c(SCc2cccc(C)c2)nnc1-c1cnccn1 | 22 µM |
| O=c1c(S(=O)(=O)c2cc(F)cc(F)c2)c[nH]c2cc(Cl)ccc12 | 20.6 µM |
| CCN1CCN(C(=O)CCCN(c2ccccc2)S(C)(=O)=O)CC1 | > 50 µM (inactive) |

| Structure (SMILES) | IC50 |
| --- | --- |
| O=c1c(Nc2cccc(F)c2)nc2ccncc2n1Cc1ccccc1 | 26 µM |
| CCc1ccc(-n2nc(C)c3c2NC(=O)CC3C(=O)c2ccc3c(c2)OCCO3)cc1 (stereo not drawn) | 26.4 µM |
| CCN(CC)C(=O)c1sc(NC(=O)/C=C/c2c(F)cccc2Cl)c(C#N)c1C | 2.93 µM |
| CSc1ccccc1NC(=O)c1ccc(-n2cccn2)nn1 | 5.75 µM |
| COc1cccc(NC(=O)C2Cn3ccnc3C3(CCN(C(C)=O)CC3)O2)c1 (stereo not drawn) | > 50 µM (inactive) |
| Cc1cc(C(F)(F)F)n(-c2ccc(NC(=O)Nc3cccc(C(F)(F)F)c3)cc2)n1 | 5.05 µM |
| Cc1cccc(C(=O)OCC(=O)Nc2ccc3[nH]c(=O)[nH]c3c2)c1C | 4.94 µM |
| COc1ccc(C)cc1NC(=O)CSc1nc(C)nc2c1oc1ccccc12 | 22 µM |
| CC(C)C1Cc2c(sc3nc(SCC(=O)Nc4cccc5ccccc45)nc(N)c23)CO1 (stereo not drawn) | 38.5 µM |
| Cn1c(C(=O)NCc2ccccn2)cc2c(=O)[nH]c3ccccc3c21 | > 50 µM (inactive) |
| C[C@H](NC(=O)Cc1ccccc1F)c1nc2cc(-c3ccccc3F)ncn2n1 | > 50 µM (inactive) |
| O=C(CN1C(=O)c2ccccc2Sc2ccc(C(=O)N3CCCC3)cc21)Nc1ccccc1Cl | 29.6 µM |
| Cc1nnc(Sc2cc(C(=O)NCCN3CCCC3)c3ccccc3n2)s1 | > 50 µM (inactive) |
| Cc1ccc(Cc2nc(-c3ccc(=O)[nH]c3)no2)cc1 | 0.423 µM |
| COc1cccc2c1NC(=O)C21CCN(C(=O)Nc2cccc(C)c2)CC1 | 14.6 µM |
| O=C(OCc1ccc(F)cc1)c1ccc2ccccc2n1 | 2.55 µM |
| Cc1ccc(CNC(=O)Cn2c(=O)n(-c3ccccc3)c3ncccc32)cc1 | > 50 µM (inactive) |
| CCCC(=O)N1CCC2(CC1)Nc1ccccc1NC2=O | > 50 µM (inactive) |
| CCC(C)(C)C1CCC2(CC1)N=C(N)Nc1nc3ccccc3n12 (stereo not drawn) | 35.6 µM |
| CC(=O)Nc1ccc(-n2cnc(C(=O)NCc3ccc(C)cc3)c2)nc1 | 19.1 µM |
| O=C1Cc2ccccc2C(=O)N1c1ccc2c(c1)OCO2 | 24.3 µM |
| COc1ccc(-c2nnc(SCc3ccccc3C#N)o2)c(OC)c1 | > 50 µM (inactive) |
| Cc1cccc(COc2ccc(C3SCC(=O)Nc4n[nH]c(C)c43)cc2)c1 (stereo not drawn) | 5.31 µM |
| Cc1ccc(S(=O)(=O)N2CCCCC2)cc1NC(=O)Cc1cccc(F)c1 | 5.05 µM |
| CC1=C(c2ccc(C)c(C)c2)S(=O)(=O)NC1=NCC(=O)NCCCc1ccccc1 | 25.5 µM |
| CCOC(=O)CSc1nnc(-c2cnn(-c3ccccc3)c2N)o1 | 19.9 µM |

| Structure (SMILES) | IC50 |
| --- | --- |
| COc1ccc(/C=C/C(=O)N2CCc3ccccc32)cc1S(=O)(=O)N1CCOCC1 | > 50 µM (inactive) |
| CCS(=O)(=O)c1ccccc1C(=O)Nc1ccc2sc(C)nc2c1 | 17.2 µM |
| Cc1cc(C)cc(-n2cnc3cc(C(=O)NCCC4=CCCCC4)ccc32)c1 | 2.01 µM |
| COc1ccccc1NC(=O)CSC1=NC2(CCCCC2)Nc2ccccc21 | > 50 µM (inactive) |
| CC(C)(C)C(=O)Nc1ccc(SCc2nnc(-c3ccccc3)o2)cc1 | 21.8 µM |
| CC(C)NS(=O)(=O)c1ccc(CCC(=O)Nc2ccc3c(c2)OCCO3)cc1 | 1.13 µM |
| CC(Sc1n[nH]c2nc3ccccc3n12)C(=O)Nc1ccc2c(c1)OCCO2 (stereo not drawn) | 37.5 µM |
| Cc1ccc(NC(=O)c2ccc3c(c2)N(S(C)(=O)=O)CC3)cc1 | 25.2 µM |
| Cc1cc(C)c2cc(C(=O)NC3CCN(Cc4ccccc4)CC3)[nH]c2c1 | 13.8 µM |
| CCOc1ccccc1NC(=O)Cn1c(=O)n(CCCC(=O)NCc2ccc(C)cc2)c(=O)c2sccc21 | 1.98 µM |
| Cc1ccc(NC(=O)CSc2nc3c(cc2C#N)C(=O)CCC3)cc1 | 21 µM |
| O=C(/C=C/C=C/C=C/C1CCCCC1)NC1=C[C@@](O)(/C=C/C=C/C=C/C(=O)NC2=C(O)CCC2=O)[C@@H]2O[C@@H]2C1=O | 3.62 µM |
| O=c1ccc(-c2noc(Cc3c(F)cccc3Cl)n2)c[nH]1 | 0.516 µM |
| O=C(OCCCN1C(=O)c2cccc3c(N4CCCCC4)ccc(c23)C1=O)c1ccccn1 | > 50 µM (inactive) |
| CCOc1ccc(CC(=O)Nc2ccc(-c3cn4cccnc4n3)cc2)cc1 | 14.6 µM |
| CC1=C(c2ccc(F)cc2)S(=O)(=O)NC1=NCC(=O)Nc1cccc(F)c1 | 48.7 µM |
| COc1ccc(Cl)cc1NC(=O)c1cc(-c2ccccn2)n[nH]1 | 0.547 µM |
| COc1cnc(-c2ccccn2)nc1Sc1ccc(C)cc1 | > 50 µM (inactive) |
| COc1ccccc1NC(=O)Cn1cc(C(=O)c2ccc(C)cc2)c(=O)c2cc(Cl)ccc21 | 11.3 µM |
| COc1ccc(-c2cc(C(C)=O)c(C)n2CCC(=O)Nc2ccc(OC)cc2OC)cc1 | 43.1 µM |
| CC(=O)NCc1nc(-c2ccc3c(c2)nc(C)c(=O)n3C2CCCC2)no1 | > 50 µM (inactive) |
| COc1cc2c(cc1OC)-c1cc(NCc3cc(OC)c(OC)c(OC)c3)nc(=O)n1CC2 | > 50 µM (inactive) |
| O=C(CNC(=O)c1cccc(F)c1)Nc1nc2ccccc2[nH]1 | 24.5 µM |
| COc1cccc(CNC(=O)C2=Cc3cccc(OC)c3OC2)c1 | 8.65 µM |
| CC(=O)Nc1ccc([C@H]2OCC(=O)N(C3CCOCC3)[C@@H]2CO)cc1 | > 50 µM (inactive) |
